Values after ≈ are worked out from the molar mass of the structure shown. Marks after values point to notes of the source that are not given here.
Columns and labels:
BTK = BTK (Homo sapiens, UniProt Q06187); experiment: BTK covalent inhibition kinetics (KI, kinact, kinact/KI); type: biochemical; details: Table 4
Description: The development of the structure-activity relationship was conducted by characterizing the non-covalent affinity of each inhibitor for BTK (KI) and the first order rate constant for irreversible covalent bond formation (kinact). The second order rate constant kinact/KI ratio is used to assess the covalent inhibitor potency because it is independent of incubation time and substrate concentrations (Copeland, R. A. Evaluation of Enzyme Inhibitors in Drug Discovery: a Guide for Medicinal Chemists and Pharmacologists; 2nd ed.; Wiley: Hoboken, N.J., 2013).

[1] = Aqueous solubility at pH 2 and pH 7; type: physicochemical; details: Table 4
[2] = Human liver microsomes T1/2; type: in vitro ADME; details: human, liver microsomes; Table 4
[3] = Solubility of P and M forms in solvent systems and their water mixtures; type: physicochemical
Text: Moreover, this solubility difference can be tuned by changing the ratio between 1-propanol/water. Therefore, M form can be efficiently converted even starting from a 1:1 d.r. mixture.

[4] = average of 2 independent determinations (± SD)
[5] = 1-Butanol/water (~6/94 w/w %), 10° C.
[6] = 1-Butanol/water (~6/94 w/w %), 25° C.
[7] = 1-Butanol/water (~6/94 w/w %), 50° C.
[8] = 1-Butanol/water (~80/20 w/w %), 10° C.
[9] = 1-Butanol/water (~80/20 w/w %), 25° C.
[10] = 1-Butanol/water (~80/20 w/w %), 50° C.
[11] = 1-Propanol/water (20/80 w/w %), 25° C.
[12] = 1-Propanol/water (20/80 w/w %), 50° C.
[13] = 1-Propanol/water (33/67 w/w %), 25° C.
[14] = 1-Propanol/water (33/67 w/w %), 50° C.
[15] = 1-Propanol/water (50/50 w/w %), 25° C.
[16] = 1-Propanol/water (50/50 w/w %), 50° C.
[17] = 1-Propanol/water (67/33 w/w %), 10° C.
[18] = 1-Propanol/water (67/33 w/w %), 25° C.
[19] = 1-Propanol/water (67/33 w/w %), 50° C.
[20] = 1-Propanol/water (80/20 w/w %), 10° C.
[21] = 1-Propanol/water (80/20 w/w %), 25° C.
[22] = 1-Propanol/water (80/20 w/w %), 50° C.
[23] = 2-butanol/water (~17/83 w/w %), 10° C.
[24] = 2-butanol/water (~17/83 w/w %), 25° C.
[25] = Isopropanol/water (~16/84 w/w %), 10° C.
[26] = Isopropanol/water (~16/84 w/w %), 25° C.
[27] = Isopropanol/water (~16/84 w/w %), 50° C.
[28] = Isopropanol/water (~28/72 w/w %), 10° C.
[29] = Isopropanol/water (~28/72 w/w %), 25° C.
[30] = Isopropanol/water (~28/72 w/w %), 50° C.
[31] = Isopropanol/water (~44/56 w/w %), 10° C.
[32] = Isopropanol/water (~44/56 w/w %), 25° C.
[33] = Isopropanol/water (~44/56 w/w %), 50° C.
[34] = Isopropanol/water (~61/39 w/w %), 10° C.
[35] = Isopropanol/water (~61/39 w/w %), 25° C.
[36] = Isopropanol/water (~61/39 w/w %), 50° C.
[37] = Propylene carbonate/water (93/7 w/w %), 10° C.
[38] = Propylene carbonate/water (93/7 w/w %), 25° C.
[39] = Propylene carbonate/water (93/7 w/w %), 50° C.

BTK, sequence (Q06187 whole entry): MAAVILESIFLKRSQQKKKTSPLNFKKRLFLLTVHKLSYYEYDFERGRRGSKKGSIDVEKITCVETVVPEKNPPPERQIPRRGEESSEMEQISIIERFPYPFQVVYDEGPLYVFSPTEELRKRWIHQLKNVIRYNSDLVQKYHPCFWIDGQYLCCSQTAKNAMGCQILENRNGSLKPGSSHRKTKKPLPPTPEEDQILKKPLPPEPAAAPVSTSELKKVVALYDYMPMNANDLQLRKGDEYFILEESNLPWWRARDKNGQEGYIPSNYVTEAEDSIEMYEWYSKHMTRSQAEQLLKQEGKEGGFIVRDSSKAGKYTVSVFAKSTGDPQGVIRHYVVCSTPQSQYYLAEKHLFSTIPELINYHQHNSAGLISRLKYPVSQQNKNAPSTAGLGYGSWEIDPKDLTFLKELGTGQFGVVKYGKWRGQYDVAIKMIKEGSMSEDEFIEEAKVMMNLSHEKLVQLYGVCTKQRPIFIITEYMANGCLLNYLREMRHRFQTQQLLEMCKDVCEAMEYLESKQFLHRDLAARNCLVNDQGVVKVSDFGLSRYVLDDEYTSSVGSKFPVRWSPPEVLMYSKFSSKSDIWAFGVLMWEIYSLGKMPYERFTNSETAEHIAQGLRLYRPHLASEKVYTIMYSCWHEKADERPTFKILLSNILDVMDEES

C=CC(=O)N1CCCC(NC(=O)c2sc3nccc4c3c2NC(=O)N4c2cnc(CC(C)C)cc2C)C1 (centres unmarked) [J]
Ki (BTK; [4]): 145 ± 20 nM
kinact (BTK; [4]): 0.000319 s⁻¹
kinact/KI (BTK; read-out: kinact/KI): 2220 ± 272 M⁻¹ s⁻¹
Solubility ([1]; aqueous medium at pH 2, simulated gastric fluid, pH 2, read-out: Solubility pH 2): 350 µM (≈ 182 µg/mL)
Solubility ([1]; aqueous medium at pH 7, aqueous buffer, pH 7, read-out: Solubility pH 7): 23 µM (≈ 11.9 µg/mL)
half-life [2]: 6 min

C=CC(=O)N[C@H]1CCC[C@H]1NC(=O)c1sc2nccc3c2c1NC(=O)N3c1cnc(CC(C)C)cc1C (single isomer, unassigned) [M form]
Solubility [3, 5]: 0.2 mg/mL (≈ 0.386 mM)
Solubility [3, 6]: 0.3 mg/mL (≈ 0.578 mM)
Solubility [3, 7]: immiscible
Solubility [3, 8]: 346.6 mg/mL (≈ 668 mM)
Solubility [3, 9]: 334.0 mg/mL (≈ 644 mM)
Solubility [3, 10]: immiscible
Solubility ([3]; 1-Butanol, 10° C.): 397.5* mg/mL
Solubility ([3]; 1-Butanol, 25° C.): 266.2 mg/mL (≈ 513 mM)
Solubility ([3]; 1-Butanol, 50° C.): 444.7 mg/mL (≈ 857 mM)
Solubility ([3]; 1-Propanol/water (20/80 w/w %), 10° C.): 4.2 mg/mL (≈ 8.1 mM)
Solubility [3, 11]: 3.7 mg/mL (≈ 7.13 mM)
Solubility [3, 12]: 4.9 mg/mL (≈ 9.45 mM)
Solubility [3, 13]: 39.9 mg/mL (≈ 76.9 mM)
Solubility [3, 14]: 285.9 mg/mL (≈ 551 mM)
Solubility [3, 15]: 187.5 mg/mL (≈ 362 mM)
Solubility [3, 16]: 276.3 mg/mL (≈ 533 mM)
Solubility [3, 17]: 341.7 mg/mL (≈ 659 mM)
Solubility [3, 18]: 336.5 mg/mL (≈ 649 mM)
Solubility [3, 19]: 363.3 mg/mL (≈ 700 mM)
Solubility [3, 20]: 394.0 mg/mL (≈ 760 mM)
Solubility [3, 21]: 386.8 mg/mL (≈ 746 mM)
Solubility [3, 22]: 394.5 mg/mL (≈ 761 mM)
Solubility ([3]; 1-Propanol, 10° C.): 500.4 mg/mL (≈ 965 mM)
Solubility ([3]; 1-Propanol, 25° C.): 265.4 mg/mL (≈ 512 mM)
Solubility [3, 23]: 2.5 mg/mL (≈ 4.82 mM)
Solubility [3, 24]: 1.7 mg/mL (≈ 3.28 mM)
Solubility ([3]; 2-butanol/water (~17/83 w/w %), 50° C.): 0.2 mg/mL (≈ 0.386 mM)
Solubility ([3]; Isobutanol/water (~8/92 w/w %), 10° C.): 0.2 mg/mL (≈ 0.386 mM)
Solubility ([3]; Isobutanol/water (~8/92 w/w %), 25° C.): 0.2 mg/mL (≈ 0.386 mM)
Solubility ([3]; Isobutanol/water (~8/92 w/w %), 50° C.): 0.1 mg/mL (≈ 0.193 mM)
Solubility ([3]; Isobutanol, 10° C.): 272.5* mg/mL
Solubility ([3]; Isobutanol, 25° C.): 238.0 mg/mL (≈ 459 mM)
Solubility ([3]; Isobutanol, 50° C.): 389.4 mg/mL (≈ 751 mM)
Solubility [3, 25]: 0.6 mg/mL (≈ 1.16 mM)
Solubility [3, 26]: 0.6 mg/mL (≈ 1.16 mM)
Solubility [3, 27]: 4.0 mg/mL (≈ 7.71 mM)
Solubility [3, 28]: 3.0 mg/mL (≈ 5.78 mM)
Solubility [3, 29]: 4.6 mg/mL (≈ 8.87 mM)
Solubility [3, 30]: 10.0 mg/mL (≈ 19.3 mM)
Solubility [3, 31]: 31.0 mg/mL (≈ 59.8 mM)
Solubility [3, 32]: 31.0 mg/mL (≈ 59.8 mM)
Solubility [3, 33]: >200 mg/mL
Solubility [3, 34]: 126.0 mg/mL (≈ 243 mM)
Solubility [3, 35]: 109.0 mg/mL (≈ 210 mM)
Solubility [3, 36]: >200 mg/mL
Solubility [3, 37]: 129.8 mg/mL (≈ 250 mM)
Solubility [3, 38]: 123.9 mg/mL (≈ 239 mM)
Solubility [3, 39]: 106.5 mg/mL (≈ 205 mM)
Solubility ([3]; Propylene carbonate, 10° C.): 163.1 mg/mL (≈ 314 mM)
Solubility ([3]; Propylene carbonate, 25° C.): 73.7 mg/mL (≈ 142 mM)
Solubility ([3]; Propylene carbonate, 50° C.): 107.0* mg/mL

C=CC(=O)N[C@H]1CCC[C@H]1NC(=O)c1sc2nccc3c2c1NC(=O)N3c1cnc(CC(C)C)cc1C (single isomer, unassigned) [P form]
Solubility [3, 5]: 0.01 mg/mL (≈ 0.0193 mM)
Solubility [3, 6]: 0.01 mg/mL (≈ 0.0193 mM)
Solubility [3, 7]: immiscible
Solubility [3, 8]: 18.2 mg/mL (≈ 35.1 mM)
Solubility [3, 9]: 20.7 mg/mL (≈ 39.9 mM)
Solubility [3, 10]: immiscible
Solubility ([3]; 1-Butanol, 10° C.): 137.3 mg/mL (≈ 265 mM)
Solubility ([3]; 1-Butanol, 25° C.): 132.8 mg/mL (≈ 256 mM)
Solubility ([3]; 1-Butanol, 50° C.): 197.6 mg/mL (≈ 381 mM)
Solubility [3, 11]: 0.4 mg/mL (≈ 0.771 mM)
Solubility [3, 12]: 0.5 mg/mL (≈ 0.964 mM)
Solubility ([3]; 1-Propanol/water (33/67 w/w %), 10 °C, aqueous with cosolvent or surfactant or cyclodextrin, thermodynamic from solid, 1-Propanol/water (33/67 w/w %), 10° C., read-out: Solubility): 2.2 mg/mL (≈ 4.24 mM)
Solubility [3, 13]: 1.9 mg/mL (≈ 3.66 mM)
Solubility [3, 14]: 1.8 mg/mL (≈ 3.47 mM)
Solubility [3, 15]: 8.5 mg/mL (≈ 16.4 mM)
Solubility [3, 16]: 15.6* mg/mL
Solubility [3, 17]: 18.0 mg/mL (≈ 34.7 mM)
Solubility [3, 18]: 20.8 mg/mL (≈ 40.1 mM)
Solubility [3, 19]: 20.3* mg/mL
Solubility [3, 20]: 24.8 mg/mL (≈ 47.8 mM)
Solubility [3, 21]: 26.3 mg/mL (≈ 50.7 mM)
Solubility [3, 22]: 32.3* mg/mL
Solubility ([3]; 1-Propanol, 10° C.): 206.8 mg/mL (≈ 399 mM)
Solubility ([3]; 1-propanol, 25 °C, organic solvent or mixture, 1-Propanol, 25° C., read-out: Solubility): 197 mg/mL (≈ 380 mM)
Solubility ([3]; 1-propanol, 50 °C, organic solvent or mixture, 1-Propanol, 50° C., read-out: Solubility): 255 mg/mL (≈ 492 mM)
Solubility ([3]; 1-propanol/water (50/50 w/w %), 10 °C, aqueous with cosolvent or surfactant or cyclodextrin, thermodynamic from solid, 1-Propanol/water (50/50 w/w %), 10° C., read-out: Solubility): 8.1 mg/mL (≈ 15.6 mM)
Solubility ([3]; 2-butanol/water (~17/83 w/w %), 50 °C, aqueous with cosolvent or surfactant or cyclodextrin, 2-butanol/water (~17/83 w/w %), 50° C., read-out: Solubility): 0.2 mg/mL (≈ 0.386 mM)
Solubility [3, 23]: 0.5 mg/mL (≈ 0.964 mM)
Solubility [3, 24]: 0.3 mg/mL (≈ 0.578 mM)
Solubility ([3]; Isobutanol, 10° C.): 105.8 mg/mL (≈ 204 mM)
Solubility ([3]; Isobutanol, 25° C.): 102.2 mg/mL (≈ 197 mM)
Solubility ([3]; Isobutanol, 50° C.): 134.3 mg/mL (≈ 259 mM)
Solubility [3, 25]: 0.1 mg/mL (≈ 0.193 mM)
Solubility [3, 26]: 0.2 mg/mL (≈ 0.386 mM)
Solubility [3, 27]: 0.3 mg/mL (≈ 0.578 mM)
Solubility [3, 28]: 0.4 mg/mL (≈ 0.771 mM)
Solubility [3, 29]: 0.7 mg/mL (≈ 1.35 mM)
Solubility [3, 30]: 1.1 mg/mL (≈ 2.12 mM)
Solubility [3, 31]: 2.0 mg/mL (≈ 3.86 mM)
Solubility [3, 32]: 3.0 mg/mL (≈ 5.78 mM)
Solubility [3, 33]: 2.0 mg/mL (≈ 3.86 mM)
Solubility [3, 34]: 4.0 mg/mL (≈ 7.71 mM)
Solubility [3, 35]: 6.0 mg/mL (≈ 11.6 mM)
Solubility [3, 36]: 4.0 mg/mL (≈ 7.71 mM)
Solubility [3, 37]: 10.9 mg/mL (≈ 21 mM)
Solubility [3, 38]: 9.0 mg/mL (≈ 17.4 mM)
Solubility [3, 39]: 8.6 mg/mL (≈ 16.6 mM)
Solubility ([3]; Propylene carbonate, 10° C.): 55.8 mg/mL (≈ 108 mM)
Solubility ([3]; isobutanol/water (~8/92 w/w %), 10 °C, aqueous with cosolvent or surfactant or cyclodextrin, Isobutanol/water (~8/92 w/w %), 10° C., read-out: Solubility): 0.1 mg/mL (≈ 0.193 mM)
Solubility ([3]; isobutanol/water (~8/92 w/w %), 25 °C, aqueous with cosolvent or surfactant or cyclodextrin, Isobutanol/water (~8/92 w/w %), 25° C., read-out: Solubility): 0.1 mg/mL (≈ 0.193 mM)
Solubility ([3]; isobutanol/water (~8/92 w/w %), 50 °C, aqueous with cosolvent or surfactant or cyclodextrin, Isobutanol/water (~8/92 w/w %), 50° C., read-out: Solubility): 0.1 mg/mL (≈ 0.193 mM)
Solubility ([3]; propylene carbonate, 25 °C, organic solvent or mixture, Propylene carbonate, 25° C., read-out: Solubility): 50.1 mg/mL (≈ 96.6 mM)
Solubility ([3]; propylene carbonate, 50 °C, organic solvent or mixture, Propylene carbonate, 50° C., read-out: Solubility): 97.3 mg/mL (≈ 188 mM)

— patent US20250163076A1, “SYNTHESIS OF BRUTON'S TYROSINE KINASE INHIBITORS” (JANSSEN PHARMACEUTICA NV, priority 2022, published 2025)
